Results as given in patent US11203601B2, “Tricyclic compounds as glycogen synthase kinase 3 (GSK3) inhibitors and uses thereof” (The Broad Institute, Inc., priority 2017, dated 2021).

How the values were obtained:
[1] = target: MLK1_Cascade (Homo sapiens (Human), UniProt P80192); assay: Carna kinome panel; assay type: biochemical; conditions: read-out: % Inhibition at 10 μM of the test compound
[2] = target: ROCK1 (Homo sapiens (Human), UniProt Q13464); assay: Carna kinome panel; assay type: biochemical; conditions: read-out: % Inhibition at 10 μM of the test compound
[3] = target: CK1α (Homo sapiens (Human), UniProt P48729); assay: Carna kinome panel; assay type: biochemical; conditions: read-out: % Inhibition at 10 μM of the test compound
Sequence of CK1α (P48729 whole entry): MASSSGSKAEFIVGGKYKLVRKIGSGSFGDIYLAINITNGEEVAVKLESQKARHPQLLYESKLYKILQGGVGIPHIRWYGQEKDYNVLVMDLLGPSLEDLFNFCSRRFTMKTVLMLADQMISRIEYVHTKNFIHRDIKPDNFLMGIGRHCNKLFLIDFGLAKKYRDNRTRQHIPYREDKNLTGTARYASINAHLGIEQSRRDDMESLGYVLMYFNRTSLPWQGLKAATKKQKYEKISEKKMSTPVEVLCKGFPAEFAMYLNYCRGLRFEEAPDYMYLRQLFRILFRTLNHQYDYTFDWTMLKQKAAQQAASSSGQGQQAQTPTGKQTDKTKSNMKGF

[4] = target: AurA (Homo sapiens (Human), UniProt O14965); assay: Carna kinome panel; assay type: biochemical; conditions: read-out: % Inhibition at 10 μM of the test compound
[5] = target: PIM1 (Homo sapiens (Human), UniProt P11309); assay: Carna kinome panel; assay type: biochemical; conditions: read-out: % Inhibition at 10 μM of the test compound
[6] = target: PKACγ (Homo sapiens (Human), UniProt P22612); assay: Carna kinome panel; assay type: biochemical; conditions: read-out: % Inhibition at 10 μM of the test compound
[7] = target: KIT(V560G) (Homo sapiens (Human), UniProt P10721, V560G); assay: Carna kinome panel; assay type: biochemical; conditions: read-out: % Inhibition at 10 μM of the test compound
[8] = target: CDC2/CycB1 (Homo sapiens (Human), UniProt P06493); assay: Carna kinome panel; assay type: biochemical; conditions: read-out: % Inhibition at 10 μM of the test compound
[9] = target: HCK (Homo sapiens (Human), UniProt P08631); assay: Carna kinome panel; assay type: biochemical; conditions: read-out: % Inhibition at 10 μM of the test compound
Sequence of HCK (P08631 whole entry): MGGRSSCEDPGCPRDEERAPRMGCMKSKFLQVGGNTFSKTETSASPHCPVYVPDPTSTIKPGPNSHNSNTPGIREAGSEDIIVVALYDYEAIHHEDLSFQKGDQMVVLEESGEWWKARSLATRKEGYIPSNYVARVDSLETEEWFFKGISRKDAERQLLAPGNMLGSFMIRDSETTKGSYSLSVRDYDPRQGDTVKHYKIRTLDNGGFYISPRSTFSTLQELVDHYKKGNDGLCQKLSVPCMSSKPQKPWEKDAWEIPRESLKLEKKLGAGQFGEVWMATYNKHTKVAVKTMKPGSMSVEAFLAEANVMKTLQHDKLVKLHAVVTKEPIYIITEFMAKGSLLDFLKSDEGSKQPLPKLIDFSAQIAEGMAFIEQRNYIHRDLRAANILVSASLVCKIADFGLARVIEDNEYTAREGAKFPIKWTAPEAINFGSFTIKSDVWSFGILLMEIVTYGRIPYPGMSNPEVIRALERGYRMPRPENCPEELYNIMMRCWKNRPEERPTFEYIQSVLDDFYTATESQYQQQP

[10] = target: EPHA2 (Homo sapiens (Human), UniProt P29317); assay: Carna kinome panel; assay type: biochemical; conditions: read-out: % Inhibition at 10 μM of the test compound
[11] = target: SLK (Homo sapiens (Human), UniProt Q9H2G2); assay: Carna kinome panel; assay type: biochemical; conditions: read-out: % Inhibition at 10 μM of the test compound
[12] = target: YES (Homo sapiens (Human), UniProt P07947); assay: Carna kinome panel; assay type: biochemical; conditions: read-out: % Inhibition at 10 μM of the test compound
[13] = target: TNK1 (Homo sapiens (Human), UniProt Q13470); assay: Carna kinome panel; assay type: biochemical; conditions: read-out: % Inhibition at 10 μM of the test compound
[14] = target: KIT(D816V) (Homo sapiens (Human), UniProt P10721, D816V); assay: Carna kinome panel; assay type: biochemical; conditions: read-out: % Inhibition at 10 μM of the test compound
[15] = target: CAMK1α (Homo sapiens (Human), UniProt Q14012); assay: Carna kinome panel; assay type: biochemical; conditions: read-out: % Inhibition at 10 μM of the test compound
[16] = target: KDR (Homo sapiens (Human), UniProt P35968); assay: Carna kinome panel; assay type: biochemical; conditions: read-out: % Inhibition at 10 μM of the test compound
[17] = target: FGFR4(V550L) (Homo sapiens (Human), UniProt P22455, V550L); assay: Carna kinome panel; assay type: biochemical; conditions: read-out: % Inhibition at 10 μM of the test compound
Sequence of FGFR4(V550L) (P22455 22-802 V550L): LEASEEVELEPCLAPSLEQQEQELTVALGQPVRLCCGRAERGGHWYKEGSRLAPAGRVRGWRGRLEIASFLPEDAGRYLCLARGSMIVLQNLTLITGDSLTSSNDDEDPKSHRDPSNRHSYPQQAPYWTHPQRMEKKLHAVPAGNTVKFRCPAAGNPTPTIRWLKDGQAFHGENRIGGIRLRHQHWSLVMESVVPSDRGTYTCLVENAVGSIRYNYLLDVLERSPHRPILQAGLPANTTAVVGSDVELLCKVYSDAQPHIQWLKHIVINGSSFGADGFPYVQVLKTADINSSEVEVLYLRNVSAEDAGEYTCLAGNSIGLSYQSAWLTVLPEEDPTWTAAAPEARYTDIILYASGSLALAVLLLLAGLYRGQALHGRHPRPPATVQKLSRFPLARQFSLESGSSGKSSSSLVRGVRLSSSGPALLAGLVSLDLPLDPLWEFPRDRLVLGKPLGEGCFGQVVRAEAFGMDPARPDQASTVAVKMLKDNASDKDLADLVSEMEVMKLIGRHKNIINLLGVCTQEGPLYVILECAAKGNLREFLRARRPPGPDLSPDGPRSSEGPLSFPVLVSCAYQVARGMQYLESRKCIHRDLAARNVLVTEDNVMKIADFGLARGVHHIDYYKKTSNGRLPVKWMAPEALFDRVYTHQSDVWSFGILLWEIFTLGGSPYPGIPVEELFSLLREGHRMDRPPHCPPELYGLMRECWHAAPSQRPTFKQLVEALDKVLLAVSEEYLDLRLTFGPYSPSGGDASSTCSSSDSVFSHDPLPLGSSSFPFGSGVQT

[18] = target: GSK3α (Homo sapiens (Human), UniProt P49840); assay: biochemical
Sequence of GSK3α (P49840 whole entry): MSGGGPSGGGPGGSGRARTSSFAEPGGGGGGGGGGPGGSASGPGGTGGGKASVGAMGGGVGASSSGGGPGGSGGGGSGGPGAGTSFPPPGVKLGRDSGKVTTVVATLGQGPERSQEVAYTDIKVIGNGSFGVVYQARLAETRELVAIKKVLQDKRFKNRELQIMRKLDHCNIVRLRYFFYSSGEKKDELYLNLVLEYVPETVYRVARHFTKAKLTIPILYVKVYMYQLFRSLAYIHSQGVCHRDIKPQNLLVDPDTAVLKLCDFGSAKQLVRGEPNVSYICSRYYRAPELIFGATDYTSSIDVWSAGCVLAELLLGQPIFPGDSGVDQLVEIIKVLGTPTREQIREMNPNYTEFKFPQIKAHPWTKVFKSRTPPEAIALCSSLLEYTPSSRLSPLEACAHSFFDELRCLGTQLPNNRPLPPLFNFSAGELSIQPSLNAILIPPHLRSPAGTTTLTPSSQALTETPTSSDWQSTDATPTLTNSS
Procedure: (§1) A selection of compounds was screened against a selected panel of kinases based on single point inhibitory ability to determine absolute inhibitory activity, leading to selectivity measurements. The assay utilized was identical to that of the single point inhibitory activity determination (MSA) but run in dose response. A solution of 4× inhibitor (5 μL), 4× substrate/ATP Metal solution (5 μL), and 2× Kinase solution (10 μL) was prepared with assay buffer (20 mM HEPES, 0.01% Triton X-100, 2 mM DTT, pH 7.5) and mixed/incubated in 384 well plates for 1 or 5 hours depending on the kinase, at room temperature. A solution of termination buffer (QuickScout Screening assist MSA; Carna Biosciences) (60 μL) was added to each well. The entire reaction mixture was then applied to a LabChip3000 system (Caliper Life Science) and the product and substrate peptide peaks were separated and quantified.
(§2) Briefly, a selection of compounds was screened against a panel of kinases at a single concentration of 10 μM. […] The entire reaction mixture was then applied to a LabChip3000 system (Caliper Life Science), and the product and substrate peptide peaks were separated and quantified. […] The entire reaction mixture was then applied to a LabChip3000 system (Caliper Life Science), and the product and substrate peptide peaks were separated and quantified.

[19] = target: EPHA3 (Homo sapiens (Human), UniProt P29320); assay: Carna kinome panel; assay type: biochemical; conditions: read-out: % Inhibition at 10 μM of the test compound
[20] = target: AKT2 (Homo sapiens (Human), UniProt P31751); assay: Carna kinome panel; assay type: biochemical; conditions: read-out: % Inhibition at 10 μM of the test compound
[21] = target: PAK4 (Homo sapiens (Human), UniProt O96013); assay: Carna kinome panel; assay type: biochemical; conditions: read-out: % Inhibition at 10 μM of the test compound
[22] = target: PKN1 (Homo sapiens (Human), UniProt Q16512); assay: Carna kinome panel; assay type: biochemical; conditions: read-out: % Inhibition at 10 μM of the test compound
[23] = target: RET (Homo sapiens (Human), UniProt P07949); assay: Carna kinome panel; assay type: biochemical; conditions: read-out: % Inhibition at 10 μM of the test compound
Sequence of RET (P07949 29-1114): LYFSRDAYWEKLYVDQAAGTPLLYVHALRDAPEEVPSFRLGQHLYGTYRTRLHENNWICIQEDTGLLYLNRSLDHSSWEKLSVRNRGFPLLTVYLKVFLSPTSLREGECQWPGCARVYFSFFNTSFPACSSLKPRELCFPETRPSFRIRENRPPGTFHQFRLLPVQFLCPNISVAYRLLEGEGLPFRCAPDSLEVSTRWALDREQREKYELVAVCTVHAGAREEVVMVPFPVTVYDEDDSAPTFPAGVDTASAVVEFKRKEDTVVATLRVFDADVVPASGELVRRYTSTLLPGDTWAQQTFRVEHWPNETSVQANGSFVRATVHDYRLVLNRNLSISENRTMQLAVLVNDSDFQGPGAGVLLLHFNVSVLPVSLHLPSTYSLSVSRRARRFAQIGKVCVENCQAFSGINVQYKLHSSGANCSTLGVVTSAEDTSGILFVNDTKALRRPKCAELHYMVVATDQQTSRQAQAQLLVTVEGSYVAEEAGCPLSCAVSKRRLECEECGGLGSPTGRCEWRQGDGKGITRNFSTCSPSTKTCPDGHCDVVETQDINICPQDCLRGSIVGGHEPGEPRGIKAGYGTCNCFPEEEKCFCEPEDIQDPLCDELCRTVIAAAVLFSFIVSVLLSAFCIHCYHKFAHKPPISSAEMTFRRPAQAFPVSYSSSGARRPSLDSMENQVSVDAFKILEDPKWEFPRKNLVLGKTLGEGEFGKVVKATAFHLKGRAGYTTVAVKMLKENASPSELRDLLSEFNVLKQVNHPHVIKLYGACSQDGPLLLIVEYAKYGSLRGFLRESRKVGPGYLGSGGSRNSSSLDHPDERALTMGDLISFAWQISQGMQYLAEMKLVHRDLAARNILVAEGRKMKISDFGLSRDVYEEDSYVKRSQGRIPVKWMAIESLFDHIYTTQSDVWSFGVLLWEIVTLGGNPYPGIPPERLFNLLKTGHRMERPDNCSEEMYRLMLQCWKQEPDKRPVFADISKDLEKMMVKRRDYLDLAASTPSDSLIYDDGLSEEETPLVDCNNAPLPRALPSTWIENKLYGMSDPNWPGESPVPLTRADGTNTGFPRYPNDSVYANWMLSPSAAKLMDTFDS

[24] = target: PKCα (Homo sapiens (Human), UniProt P17252); assay: Carna kinome panel; assay type: biochemical; conditions: read-out: % Inhibition at 10 μM of the test compound
[25] = target: CRIK (Homo sapiens (Human), UniProt O14578); assay: Carna kinome panel; assay type: biochemical; conditions: read-out: % Inhibition at 10 μM of the test compound
[26] = target: GSK3β (Homo sapiens (Human), UniProt P49841); assay: Carna kinome panel; assay type: biochemical
Sequence of GSK3β (P49841 whole entry): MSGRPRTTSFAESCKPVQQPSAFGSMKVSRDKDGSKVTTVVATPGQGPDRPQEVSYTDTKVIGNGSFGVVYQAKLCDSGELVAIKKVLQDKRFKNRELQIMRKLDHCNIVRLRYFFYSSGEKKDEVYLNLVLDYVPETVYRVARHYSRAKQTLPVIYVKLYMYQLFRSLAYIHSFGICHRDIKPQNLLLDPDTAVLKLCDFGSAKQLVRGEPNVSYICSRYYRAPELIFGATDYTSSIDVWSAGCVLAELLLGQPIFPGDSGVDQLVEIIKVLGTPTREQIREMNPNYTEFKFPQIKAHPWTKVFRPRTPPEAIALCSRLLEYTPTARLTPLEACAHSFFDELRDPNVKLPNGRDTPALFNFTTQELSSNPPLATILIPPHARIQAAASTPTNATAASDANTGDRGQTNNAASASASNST
Procedure: as §1, §2

[27] = target: MUSK (Homo sapiens (Human), UniProt O15146); assay: Carna kinome panel; assay type: biochemical; conditions: read-out: % Inhibition at 10 μM of the test compound
[28] = target: MAP3K5_Cascade (Homo sapiens (Human), UniProt Q99683); assay: Carna kinome panel; assay type: biochemical; conditions: read-out: % Inhibition at 10 μM of the test compound
Sequence of MAP3K5_Cascade (Q99683 whole entry): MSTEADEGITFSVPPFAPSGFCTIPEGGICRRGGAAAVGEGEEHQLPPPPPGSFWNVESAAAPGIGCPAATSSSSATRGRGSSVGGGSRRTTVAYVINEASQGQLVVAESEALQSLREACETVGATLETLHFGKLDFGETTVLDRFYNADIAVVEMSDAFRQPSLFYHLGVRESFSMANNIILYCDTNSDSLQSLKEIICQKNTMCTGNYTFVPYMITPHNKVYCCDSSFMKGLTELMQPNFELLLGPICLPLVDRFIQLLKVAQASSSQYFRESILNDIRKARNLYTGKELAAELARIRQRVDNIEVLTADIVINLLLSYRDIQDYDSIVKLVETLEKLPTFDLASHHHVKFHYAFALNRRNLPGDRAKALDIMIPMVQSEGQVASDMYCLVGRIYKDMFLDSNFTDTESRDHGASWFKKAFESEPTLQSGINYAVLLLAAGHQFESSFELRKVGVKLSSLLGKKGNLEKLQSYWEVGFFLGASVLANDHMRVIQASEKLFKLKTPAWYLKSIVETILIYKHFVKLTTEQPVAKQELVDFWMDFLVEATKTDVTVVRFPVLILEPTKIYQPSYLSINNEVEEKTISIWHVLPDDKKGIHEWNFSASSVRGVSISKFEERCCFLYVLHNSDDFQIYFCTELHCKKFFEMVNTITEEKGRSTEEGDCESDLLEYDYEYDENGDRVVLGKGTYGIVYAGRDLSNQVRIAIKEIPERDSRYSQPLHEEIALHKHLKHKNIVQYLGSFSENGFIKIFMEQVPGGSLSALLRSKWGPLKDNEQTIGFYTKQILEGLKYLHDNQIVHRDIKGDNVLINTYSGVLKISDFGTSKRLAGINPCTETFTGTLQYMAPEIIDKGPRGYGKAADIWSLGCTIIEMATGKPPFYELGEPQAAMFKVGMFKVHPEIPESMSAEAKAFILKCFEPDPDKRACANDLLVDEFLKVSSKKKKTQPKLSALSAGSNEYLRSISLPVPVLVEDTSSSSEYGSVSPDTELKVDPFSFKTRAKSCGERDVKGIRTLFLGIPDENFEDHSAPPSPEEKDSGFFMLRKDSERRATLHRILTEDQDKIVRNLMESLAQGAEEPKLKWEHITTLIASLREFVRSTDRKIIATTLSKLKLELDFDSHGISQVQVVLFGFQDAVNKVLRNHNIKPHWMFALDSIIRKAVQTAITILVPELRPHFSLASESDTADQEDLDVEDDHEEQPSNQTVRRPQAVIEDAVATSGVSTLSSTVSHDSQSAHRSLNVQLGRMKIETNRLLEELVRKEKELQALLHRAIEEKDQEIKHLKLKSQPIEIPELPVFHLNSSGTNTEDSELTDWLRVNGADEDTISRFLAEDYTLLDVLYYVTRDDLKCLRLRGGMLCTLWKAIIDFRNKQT

[29] = target: MST2 (Homo sapiens (Human), UniProt Q13188); assay: Carna kinome panel; assay type: biochemical; conditions: read-out: % Inhibition at 10 μM of the test compound
[30] = target: p70S6K (Homo sapiens (Human), UniProt P23443); assay: Carna kinome panel; assay type: biochemical; conditions: read-out: % Inhibition at 10 μM of the test compound
[31] = target: PKCθ (Homo sapiens (Human), UniProt Q04759); assay: Carna kinome panel; assay type: biochemical; conditions: read-out: % Inhibition at 10 μM of the test compound
[32] = target: PDHK4 (Homo sapiens (Human), UniProt Q16654); assay: Carna kinome panel; assay type: biochemical; conditions: read-out: % Inhibition at 10 μM of the test compound
[33] = target: ABL (Homo sapiens (Human), UniProt P00519); assay: Carna kinome panel; assay type: biochemical; conditions: read-out: % Inhibition at 10 μM of the test compound
[34] = tested on: MAP3K1_Cascade; assay: Carna kinome panel; assay type: biochemical
Procedure: Briefly, a selection of compounds was screened against a panel of kinases at a single concentration of 10 μM. […] This was completed using one of two assays, depending on the kinase being examined: 1) IMAP Assay. A solution of 4× inhibitor, 4× substrate/ATP/metal solution and 2× kinase solution was prepared with assay buffer (20 mM HEPES, 0.01% Tween-20, 2 mM DTT, pH 7.4) and mixed, then incubated in 384-well black plates for 1 hour at room temperature. The IMAP binding reagent (IMAP Screening Express kit; Molecular Devices) was added to each well and incubated for 30 minutes. […] 2) Off-Chip Mobility Shift Assay (MSA). A solution of 4× inhibitor, 4× substrate/ATP/metal solution and 2× kinase solution was prepared with assay buffer (20 mM HEPES, 0.01% Triton X-100, 2 mM DTT, pH 7.5) and mixed, then incubated in 384-well plates for 1 or 5 hours depending on the kinase, at room temperature. Termination buffer (QuickScout Screening assist MSA; Carna Biosciences) was added to each well. The entire reaction mixture was then applied to a LabChip3000 system (Caliper Life Science), and the product and substrate peptide peaks were separated and quantified. […] The entire reaction mixture was then applied to a LabChip3000 system (Caliper Life Science), and the product and substrate peptide peaks were separated and quantified.

[35] = target: FGFR1 (Homo sapiens (Human), UniProt P11362); assay: Carna kinome panel; assay type: biochemical; conditions: read-out: % Inhibition at 10 μM of the test compound
[36] = target: DYRK1A (Homo sapiens (Human), UniProt Q13627); assay: Carna kinome panel; assay type: biochemical; conditions: read-out: % Inhibition at 10 μM of the test compound
[37] = target: ROCK2 (Homo sapiens (Human), UniProt O75116); assay: Carna kinome panel; assay type: biochemical; conditions: read-out: % Inhibition at 10 μM of the test compound
[38] = target: ALK(R1275Q) (Homo sapiens (Human), UniProt Q9UM73, R1275Q); assay: Carna kinome panel; assay type: biochemical; conditions: read-out: % Inhibition at 10 μM of the test compound
[39] = target: CDK5/p25 (Homo sapiens (Human), UniProt Q00535); assay: Carna kinome panel; assay type: biochemical; conditions: read-out: % Inhibition at 10 μM of the test compound
[40] = target: BRSK1 (Homo sapiens (Human), UniProt Q8TDC3); assay: Carna kinome panel; assay type: biochemical; conditions: read-out: % Inhibition at 10 μM of the test compound
[41] = read-out: % Inhibition at 10 μM of the test compound

What does the source list for `CCC1(c2ccccc2)C2=C(CC(C)(C)CC2=O)Nc2ncsc21` (stereo not drawn) [Compound 1, 9-Ethyl-6,6-dimethyl-9-phenyl-5,6,7,9-tetrahydrothiazolo[4,5-b]quinolin-8(4H)-one]?
inhibition at 10 µM [1]: 7.5%; inhibition at 10 µM [2]: 7%; inhibition at 10 µM [3]: 4.3%; inhibition at 10 µM [4]: 0.4%; inhibition at 10 µM [5]: 0%; inhibition at 10 µM [6]: -5.6%; inhibition at 10 µM [7]: -5.8%; inhibition at 10 µM [8]: 22.7%; inhibition at 10 µM [9]: -3%; inhibition at 10 µM [10]: -0.3%; inhibition at 10 µM [11]: -0.6%; inhibition at 10 µM [12]: 3.3%; inhibition at 10 µM [13]: 11.7%; inhibition at 10 µM [14]: -4.8%; inhibition at 10 µM [15]: -2.6%; inhibition at 10 µM [16]: 0.2%; inhibition at 10 µM [17]: 3.3%; IC50 [18]: 31.3 nM; inhibition at 10 µM [18, 41]: 98%; inhibition at 10 µM [19]: 22.5%; inhibition at 10 µM [20]: 1%; inhibition at 10 µM [21]: 17%; inhibition at 10 µM [22]: 8.9%; inhibition at 10 µM [23]: -1.9%; inhibition at 10 µM [24]: -11%; inhibition at 10 µM [25]: 1.6%; IC50 ([26]; GSK3β): 137 nM; inhibition at 10 µM [26, 41]: 97.7%; inhibition at 10 µM [27]: 0%; inhibition at 10 µM [28]: 5.4%; inhibition at 10 µM [29]: 4.2%; inhibition at 10 µM [30]: 2.9%; inhibition at 10 µM [31]: -11.2%; inhibition at 10 µM [32]: 8.3%; inhibition at 10 µM [33]: -2.7%; % Inhibition at 10 μM of the test compound [34]: −1.0%; inhibition at 10 µM [35]: -5%; inhibition at 10 µM [36]: -5.8%; inhibition at 10 µM [37]: -3.1%; inhibition at 10 µM [38]: -8%; inhibition at 10 µM [39]: 41.2%; inhibition at 10 µM [40]: -12.9%
